According to ChEMBL document CHEMBL4368888, “Design, synthesis and biological evaluation of tryptamine salicylic acid derivatives as potential antitumor agents” (Medchemcomm, 2019):

Legend:
Type in all cases: functional, cell-based
A549 = test: Antiproliferative activity against human A549 cells after 48 hrs by MTT assay; settings: A549, 48 h
HeLa = test: Antiproliferative activity against human HeLa cells after 48 hrs by MTT assay
MCF7 = test: Antiproliferative activity against human MCF7 cells after 48 hrs by MTT assay; settings: MCF7, 48 h
MGC-803 = test: Antiproliferative activity against human MGC803 cells after 48 hrs by MTT assay; settings: MGC-803, 48 h
HepG2 = test: Antiproliferative activity against human HepG2 cells after 48 hrs by MTT assay; settings: HepG2, 48 h

Row | SMILES | IC50 (A549) | IC50 (HeLa) | IC50 (MCF7) | IC50 (MGC-803) | IC50 (HepG2)
1 | Cc1cccc(C(=O)NCCc2c[nH]c3ccc(F)cc23)c1O | 67 µM | > 100 µM | > 100 µM | 52 µM | > 100 µM
2 | Cc1ccc2[nH]cc(CCNC(=O)c3ccc(Cl)cc3O)c2c1 | 68 µM | 93 µM | > 100 µM | 47 µM | 98 µM
3 | O=C(NCCc1c[nH]c2ccc(F)cc12)c1cc(Br)ccc1O | 77 µM | 76 µM | > 100 µM | 80 µM | > 100 µM
4 | COc1ccc2[nH]cc(CCNC(=O)c3ccccc3O)c2c1 | > 100 µM | 82 µM | > 100 µM | 59 µM | > 100 µM
5 | O=C(NCCc1c[nH]c2ccc(F)cc12)c1ccc(Cl)cc1O | > 100 µM | > 100 µM | > 100 µM | 62 µM | > 100 µM
6 | Cc1ccc(C(=O)NCCc2c[nH]c3ccc(Cl)cc23)c(O)c1 | 63 µM | 64 µM | 73 µM | 37 µM | > 100 µM
7 | O=C(NCCc1c[nH]c2ccc(Br)cc12)c1cc(Br)ccc1O | 62 µM | > 100 µM | > 100 µM | 80 µM | > 100 µM
8 | O=C(NCCc1c[nH]c2ccc(Br)cc12)c1ccccc1O | 59 µM | 79 µM | 80 µM | 37 µM | > 100 µM
9 | Cc1cccc(C(=O)NCCc2c[nH]c3ccc(Cl)cc23)c1O | 48 µM | 56 µM | 70 µM | 56 µM | 62 µM
10 | O=C(NCCc1c[nH]c2ccc(Cl)cc12)c1cc(Br)ccc1O | 63 µM | 85 µM | 75 µM | 35 µM | > 100 µM
11 | O=C(NCCc1c[nH]c2ccc(Cl)cc12)c1cc(Cl)ccc1O | 62 µM | 80 µM | 80 µM | 31 µM | 89 µM
12 | Cc1ccc(C(=O)NCCc2c[nH]c3ccc(C)cc23)c(O)c1 | 75 µM | > 100 µM | 60 µM | 38 µM | > 100 µM
13 | Cc1ccc2[nH]cc(CCNC(=O)c3cccc(C)c3O)c2c1 | 50 µM | 61 µM | 62 µM | 38 µM | 64 µM
14 | O=C(NCCc1c[nH]c2ccc(F)cc12)c1cc(Cl)ccc1O | 53 µM | > 100 µM | > 100 µM | 53 µM | > 100 µM
15 | Cc1ccc(C(=O)NCCc2c[nH]c3ccc(F)cc23)c(O)c1 | > 100 µM | > 100 µM | > 100 µM | 60 µM | > 100 µM
16 | O=C(NCCc1c[nH]c2ccc(Cl)cc12)c1ccccc1O | 60 µM | 81 µM | 75 µM | 35 µM | > 100 µM
17 | O=C(NCCc1c[nH]c2ccc(Br)cc12)c1ccc(Cl)cc1O | 63 µM | 71 µM | 98 µM | 43 µM | 92 µM
18 | Cc1ccc(C(=O)NCCc2c[nH]c3ccccc23)c(O)c1 | > 100 µM | > 100 µM | > 100 µM | 80 µM | > 100 µM

Row | SMILES | IC50 (A549) | IC50 (HeLa) | IC50 (MCF7) | IC50 (MGC-803) | IC50 (HepG2)
19 | O=C(NCCc1c[nH]c2ccccc12)c1ccc(Cl)cc1O | > 100 µM | > 100 µM | > 100 µM | 80 µM | > 100 µM
20 | COc1ccc2[nH]cc(CCNC(=O)c3ccc(Cl)cc3O)c2c1 | > 100 µM | 71 µM | > 100 µM | 56 µM | > 100 µM
21 | Cc1ccc2[nH]cc(CCNC(=O)c3ccccc3O)c2c1 | > 100 µM | > 100 µM | 93 µM | 45 µM | > 100 µM
22 | O=C(NCCc1c[nH]c2ccc(Cl)cc12)c1ccc(Cl)cc1O | 46 µM | 64 µM | 69 µM | 34 µM | 90 µM
23 | O=C(NCCc1c[nH]c2ccc(F)cc12)c1ccccc1O | > 100 µM | > 100 µM | > 100 µM | 63 µM | > 100 µM
24 | O=C(NCCc1c[nH]c2ccccc12)c1cc(Br)ccc1O | > 100 µM | > 100 µM | > 100 µM | 78 µM | > 100 µM
25 | COc1ccc2[nH]cc(CCNC(=O)c3cc(Br)ccc3O)c2c1 | > 100 µM | 74 µM | > 100 µM | 62 µM | > 100 µM
26 | COc1ccc2[nH]cc(CCNC(=O)c3cccc(C)c3O)c2c1 | > 100 µM | 42 µM | 97 µM | 43 µM | 85 µM
27 | Cc1cccc(C(=O)NCCc2c[nH]c3ccccc23)c1O | > 100 µM | 82 µM | > 100 µM | 63 µM | > 100 µM
28 | O=c1[nH]cc(F)c(=O)[nH]1 [FLUOROURACIL] | > 100 µM | 50 µM |  | 58 µM | 68 µM
29 | COc1ccc2[nH]cc(CCNC(=O)c3ccc(C)cc3O)c2c1 | > 100 µM | 80 µM | > 100 µM | 59 µM | 80 µM
30 | Cc1ccc(C(=O)NCCc2c[nH]c3ccc(Br)cc23)c(O)c1 | 61 µM | 61 µM | 80 µM | 48 µM | 80 µM
31 | O=C(NCCc1c[nH]c2ccccc12)c1cc(Cl)ccc1O | > 100 µM | > 100 µM | > 100 µM | 74 µM | > 100 µM
32 | Cc1ccc2[nH]cc(CCNC(=O)c3cc(Cl)ccc3O)c2c1 | 89 µM | > 100 µM | 79 µM | 42 µM | > 100 µM
33 | O=C(NCCc1c[nH]c2ccccc12)c1ccccc1O | > 100 µM | > 100 µM | > 100 µM | > 100 µM | > 100 µM
34 | COc1ccc2[nH]cc(CCNC(=O)c3cc(Cl)ccc3O)c2c1 | > 100 µM | > 100 µM | > 100 µM | 55 µM | 75 µM
35 | Cc1ccc2[nH]cc(CCNC(=O)c3cc(Br)ccc3O)c2c1 | 80 µM | > 100 µM | 89 µM | 61 µM | 93 µM
36 | O=C(NCCc1c[nH]c2ccc(Br)cc12)c1cc(Cl)ccc1O | 63 µM | 80 µM | 73 µM | 63 µM | 87 µM
